# In US20170204123A1, “Gold (I)-Phosphine Compounds as Anti-Bacterial Agents” (Auspherix Limited, priority 2014, published 2017):
# System: human hepatocyte cell line (HepG2)
# Assay: HepG2 cell inhibition assay (CCK-8 cell viability)
# Assay type: cell-based
# Conditions: 50% growth inhibition vs untreated control, 24 hours
# Procedure: HepG2 Cell Inhibition Assay
# Cell counting kit-8 (Sigma, CCK-8) assays were performed to assess the effect of compounds on cell viability. The assay is based on the reduction of a water-soluble tetrazolium salt (WST-8) by cellular dehydrogenases to a formazan dye which can be detected spectroscopically. 96-well plates were seeded with the human hepatocyte cell line (HepG2) at approximately 8×10^3 cells per well in Minimum Essential Medium Eagle (EMEM) with Earle's salts and sodium bicarbonate supplemented with 10% heat-inactivated foetal bovine serum 2 mM glutamine and 1% non-essential amino acids (NEAA). The following day serial dilutions of compounds (dissolved and diluted in DMSO) were added to the cells in duplicates. Control included an ‘untreated’ control where cells were grown in the presence of 1% DMSO and a medium only control (plus 1% DMSO). After 24 hours CCK-8 reagent (10 μl) was added to each well and cell viability was assessed by measuring the absorbance at a wavelength of 450 nm after 2-3 h hours. Only living cells can reduce the tetrazolium salts into coloured formazan products. Results were expressed as 50% growth inhibition (TD50) values compared to ‘untreated’ control. The therapeutic index was calculated as the ratio of the dose that produces growth inhibition in 50% of HepG2 cells divided by the dose where 50% of S. aureus growth is inhibited.
row,SMILES,HepG2 cell TD50 [µg/mL]
1,CC[P](CC)(CC)=[Au][S]C[C@H](NC(C)=O)C(N)=O [Compound 16],9
2,C[P](C)(=[Au][S]c1nc2ncccc2o1)c1ccccc1 [Compound 14],9
3,C[P](C)(=[Au][S]c1nc2ccccc2[nH]1)c1ccccc1 [Compound 13],8.5
4,COC(=O)[C@H](C[Se][Au]=[P](C(C)C)(C(C)C)C(C)C)NC(C)=O [Compound 23],12
5,COC(=O)[C@H](C[S][Au]=[P](C)(C)c1ccccc1)NC(C)=O [Compound 15],6
6,CC(C)[P](=[Au][S]c1nc2ccccc2[nH]1)(C(C)C)C(C)C [Compound 20],6
7,COC(=O)[C@H](C[Se][Au]=[P](C)(c1ccccc1)c1ccccc1)NC(C)=O [Compound 22],10

# System: chinese hamster ovary cells (CHO)
# Assay: CHO toxicity assay (CCK-8 cell viability)
# Assay type: cell-based
# Conditions: 50% growth inhibition vs untreated control, 24 hours
# Procedure: Cell counting kit-8 (Sigma, CCK-8) assays were performed to assess the effect of compounds on cell viability. The assay is based on the reduction of a water-soluble tetrazolium salt (WST-8) by cellular dehydrogenases to a formazan dye which can be detected spectroscopically. 96-well plates were seeded with chinese hamster ovary cells (CHO) cells at 7×10^3 cells per well in Dulbecco's modified Eagle's medium nutrient mixture F-12 Ham (containing 15 mM HEPES, NaHCO3, pyridoxine and L-glutamine) supplemented with 10% fetal bovine serum (FBS). The following day serial dilutions of compounds (dissolved and diluted in DMSO) were added to the cells in duplicates. Control included an ‘untreated’ control where cells were grown in the presence of 1% DMSO and a medium only control (plus 1% DMSO). After 24 hours CCK-8 reagent (10 μl) was added to each well and cell viability was assessed by measuring the absorbance at a wavelength of 450 nm after 2.5-3 hours. Only living cells can reduce the tetrazolium salts into coloured formazan products. Results were expressed as 50% growth inhibition (TD50) values compared to ‘untreated’ control.
# The therapeutic index was calculated as the ratio of the dose that produces growth inhibition in 50% of CHO cells divided by the dose where 50% of S. aureus growth is inhibited.
row,SMILES,CHO cell TD 50 [µg/mL]
1,C[P](=[Au][S]c1nc2ncccc2o1)(c1ccccc1)c1ccccc1 [Compound 11],2.0
2,CC[P](CC)(CC)=[Au][S]c1nc2ncccc2o1 [Compound 8],1.6
3,CC[P](CC)(CC)=[Au][S]c1ncccn1 [Compound 3],0.6
4,CC[P](CC)(CC)=[Au][S]C1CCOCC1 [Compound 1],0.5
5,CC[P](CC)(CC)=[Au][S][C@H]1CC[C@H](O)CC1 [Compound 6],1.5
6,COC(=O)[C@H](C[S][Au]=[P](C)(c1ccccc1)c1ccccc1)NC(C)=O [Compound 10],1.2
7,CC[P](CC)(CC)=[Au][S]c1cccnn1 [Compound 4],1.4
8,CC[P](CC)(CC)=[Au][S]C[C@H](NC(C)=O)C(=O)OC [Compound 7],2.6
9,C[P](=[Au][S]c1nc2ccccc2[nH]1)(c1ccccc1)c1ccccc1 [Compound 9],2.6
10,CC[P](CC)(CC)=[Au][S]C1CCN(C(=O)OC(C)(C)C)CC1 [Compound 2],0.7
11,CC[P](CC)(CC)=[Au][Se]C[C@H](NC(C)=O)C(=O)OC [Compound 12],6.5
12,CC[P](CC)(CC)=[Au][S]c1nc2ccccc2[nH]1 [Compound 5],1.5
